Measured values published in patent US20100004234A1, “SPECIFIC KINASE INHIBITORS” (Kosan Biosciences Incorporated, priority 2004, published 2010).

What was measured:
ALK(h) = ALK(h) (Homo sapiens, UniProt Q9UM73); assay: Kinase panel, residual activity; assay type: biochemical; conditions: read-out: Percent residual activity
Method: (§1) In this panel of 124 kinases, 18 of the 19 kinases identified as having an active site cysteine were inhibited to some extent by hypothemycin at a concentration of 0.2 μM and/or 2 μM.

BRK(h) = BRK(h) (Homo sapiens, UniProt Q13882); assay: Kinase panel, residual activity; assay type: biochemical; conditions: read-out: Percent residual activity
Method: as §1

Bmx(h) = Bmx(h) (Homo sapiens, UniProt P51813); assay: Kinase panel, residual activity; assay type: biochemical; conditions: read-out: Percent residual activity
Method: as §1

DDR2(h) = DDR2(h) (Homo sapiens, UniProt Q16832); assay: Kinase panel, residual activity; assay type: biochemical; conditions: read-out: Percent residual activity
Chain of DDR2(h) (Q16832 22-855): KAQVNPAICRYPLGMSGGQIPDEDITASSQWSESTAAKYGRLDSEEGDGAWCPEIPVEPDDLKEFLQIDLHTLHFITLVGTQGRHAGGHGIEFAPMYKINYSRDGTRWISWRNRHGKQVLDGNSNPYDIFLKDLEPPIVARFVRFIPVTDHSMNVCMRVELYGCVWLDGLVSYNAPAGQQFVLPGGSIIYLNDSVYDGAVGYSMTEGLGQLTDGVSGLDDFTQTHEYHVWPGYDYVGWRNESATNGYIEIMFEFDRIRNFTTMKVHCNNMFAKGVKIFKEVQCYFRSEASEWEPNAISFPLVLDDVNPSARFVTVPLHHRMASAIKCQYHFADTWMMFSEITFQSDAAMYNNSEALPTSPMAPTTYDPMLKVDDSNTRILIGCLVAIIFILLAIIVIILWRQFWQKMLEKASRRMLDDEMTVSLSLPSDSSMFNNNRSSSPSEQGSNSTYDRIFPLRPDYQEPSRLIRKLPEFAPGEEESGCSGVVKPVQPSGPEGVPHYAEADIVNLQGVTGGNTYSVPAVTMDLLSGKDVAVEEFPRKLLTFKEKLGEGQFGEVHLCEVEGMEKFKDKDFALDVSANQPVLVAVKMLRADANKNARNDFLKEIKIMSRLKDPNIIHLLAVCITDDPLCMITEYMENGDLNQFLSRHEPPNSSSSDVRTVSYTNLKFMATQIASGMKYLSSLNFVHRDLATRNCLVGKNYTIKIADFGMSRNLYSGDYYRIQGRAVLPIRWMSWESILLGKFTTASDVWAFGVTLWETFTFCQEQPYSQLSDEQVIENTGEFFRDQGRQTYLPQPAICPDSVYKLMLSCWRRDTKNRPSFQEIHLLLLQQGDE
Method: as §1

FGFR4(h) = FGFR4(h) (Homo sapiens, UniProt P22455); assay: Kinase panel, residual activity; assay type: biochemical; conditions: read-out: Percent residual activity
Method: as §1

Flt3(D835Y)(h) = Flt3(D835Y)(h) (Homo sapiens, UniProt P36888, D835Y); assay: Kinase panel, residual activity; assay type: biochemical; conditions: read-out: Percent residual activity
Method: as §1

IRAK4(h) = IRAK4(h) (Homo sapiens, UniProt Q9NWZ3); assay: Kinase panel, residual activity; assay type: biochemical; conditions: read-out: Percent residual activity
Chain of IRAK4(h) (Q9NWZ3 whole entry): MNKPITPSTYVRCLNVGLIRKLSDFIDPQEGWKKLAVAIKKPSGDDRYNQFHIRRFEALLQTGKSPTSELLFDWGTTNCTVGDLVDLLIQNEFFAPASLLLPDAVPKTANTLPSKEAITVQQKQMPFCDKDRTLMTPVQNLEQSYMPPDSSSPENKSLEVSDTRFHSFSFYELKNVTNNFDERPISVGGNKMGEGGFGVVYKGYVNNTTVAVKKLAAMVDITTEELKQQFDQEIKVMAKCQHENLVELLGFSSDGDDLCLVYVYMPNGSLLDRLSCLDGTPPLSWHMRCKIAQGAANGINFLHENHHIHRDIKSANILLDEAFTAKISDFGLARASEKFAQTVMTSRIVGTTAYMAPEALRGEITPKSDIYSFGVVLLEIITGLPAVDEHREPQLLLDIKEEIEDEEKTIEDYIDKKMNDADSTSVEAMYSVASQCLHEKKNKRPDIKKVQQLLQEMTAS
Method: as §1

JNK3(h) = JNK3(h) (Homo sapiens, UniProt P53779); assay: Kinase panel, residual activity; assay type: biochemical; conditions: read-out: Percent residual activity
Method: as §1

MSK2(h) = MSK2(h) (Homo sapiens, UniProt O75676); assay: Kinase panel, residual activity; assay type: biochemical; conditions: read-out: Percent residual activity
Chain of MSK2(h) (O75676 whole entry): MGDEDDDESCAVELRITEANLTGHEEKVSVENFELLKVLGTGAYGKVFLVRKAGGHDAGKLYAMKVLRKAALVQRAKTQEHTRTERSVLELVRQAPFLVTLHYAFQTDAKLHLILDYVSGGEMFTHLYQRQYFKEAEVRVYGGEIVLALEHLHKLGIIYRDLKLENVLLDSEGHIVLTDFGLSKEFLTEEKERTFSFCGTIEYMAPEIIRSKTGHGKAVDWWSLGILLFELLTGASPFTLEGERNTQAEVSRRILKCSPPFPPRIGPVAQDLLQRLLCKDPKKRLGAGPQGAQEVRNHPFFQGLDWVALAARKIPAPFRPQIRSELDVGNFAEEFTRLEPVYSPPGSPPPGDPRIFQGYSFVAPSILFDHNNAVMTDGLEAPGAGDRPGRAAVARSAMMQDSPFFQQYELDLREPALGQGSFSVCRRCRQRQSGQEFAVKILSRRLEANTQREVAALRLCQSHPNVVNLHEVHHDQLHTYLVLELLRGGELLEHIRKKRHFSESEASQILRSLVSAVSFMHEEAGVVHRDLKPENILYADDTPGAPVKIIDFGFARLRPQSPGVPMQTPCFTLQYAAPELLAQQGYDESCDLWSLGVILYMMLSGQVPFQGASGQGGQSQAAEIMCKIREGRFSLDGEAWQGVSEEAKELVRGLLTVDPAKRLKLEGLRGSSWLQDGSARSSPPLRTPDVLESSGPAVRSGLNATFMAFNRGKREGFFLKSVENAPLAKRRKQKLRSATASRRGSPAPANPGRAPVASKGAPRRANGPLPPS
Method: as §1

NEK2(h) = NEK2(h) (Homo sapiens, UniProt P51955); assay: Kinase panel, residual activity; assay type: biochemical; conditions: read-out: Percent residual activity
Chain of NEK2(h) (P51955 whole entry): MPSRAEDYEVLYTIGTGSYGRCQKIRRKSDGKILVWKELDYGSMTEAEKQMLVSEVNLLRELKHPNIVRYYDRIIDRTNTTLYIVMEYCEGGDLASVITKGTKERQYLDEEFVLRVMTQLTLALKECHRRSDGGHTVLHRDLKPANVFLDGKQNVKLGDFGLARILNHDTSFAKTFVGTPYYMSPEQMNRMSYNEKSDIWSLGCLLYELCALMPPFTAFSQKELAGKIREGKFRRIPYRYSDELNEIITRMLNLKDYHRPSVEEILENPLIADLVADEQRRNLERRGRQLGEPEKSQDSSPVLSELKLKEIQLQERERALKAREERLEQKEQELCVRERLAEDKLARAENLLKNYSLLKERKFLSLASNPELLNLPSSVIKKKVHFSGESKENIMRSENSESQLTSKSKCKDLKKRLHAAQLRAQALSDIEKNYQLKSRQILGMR
Method: as §1

PKCα(h) = PKCα(h) (Homo sapiens, UniProt P17252); assay: Kinase panel, residual activity; assay type: biochemical; conditions: read-out: Percent residual activity
Method: as §1

PKCη(h) = PKCη(h) (Homo sapiens, UniProt P24723); assay: Kinase panel, residual activity; assay type: biochemical; conditions: read-out: Percent residual activity
Method: as §1

Rse(h) = Rse(h) (Homo sapiens, UniProt Q06418); assay: Kinase panel, residual activity; assay type: biochemical; conditions: read-out: Percent residual activity
Chain of Rse(h) (Q06418 41-890): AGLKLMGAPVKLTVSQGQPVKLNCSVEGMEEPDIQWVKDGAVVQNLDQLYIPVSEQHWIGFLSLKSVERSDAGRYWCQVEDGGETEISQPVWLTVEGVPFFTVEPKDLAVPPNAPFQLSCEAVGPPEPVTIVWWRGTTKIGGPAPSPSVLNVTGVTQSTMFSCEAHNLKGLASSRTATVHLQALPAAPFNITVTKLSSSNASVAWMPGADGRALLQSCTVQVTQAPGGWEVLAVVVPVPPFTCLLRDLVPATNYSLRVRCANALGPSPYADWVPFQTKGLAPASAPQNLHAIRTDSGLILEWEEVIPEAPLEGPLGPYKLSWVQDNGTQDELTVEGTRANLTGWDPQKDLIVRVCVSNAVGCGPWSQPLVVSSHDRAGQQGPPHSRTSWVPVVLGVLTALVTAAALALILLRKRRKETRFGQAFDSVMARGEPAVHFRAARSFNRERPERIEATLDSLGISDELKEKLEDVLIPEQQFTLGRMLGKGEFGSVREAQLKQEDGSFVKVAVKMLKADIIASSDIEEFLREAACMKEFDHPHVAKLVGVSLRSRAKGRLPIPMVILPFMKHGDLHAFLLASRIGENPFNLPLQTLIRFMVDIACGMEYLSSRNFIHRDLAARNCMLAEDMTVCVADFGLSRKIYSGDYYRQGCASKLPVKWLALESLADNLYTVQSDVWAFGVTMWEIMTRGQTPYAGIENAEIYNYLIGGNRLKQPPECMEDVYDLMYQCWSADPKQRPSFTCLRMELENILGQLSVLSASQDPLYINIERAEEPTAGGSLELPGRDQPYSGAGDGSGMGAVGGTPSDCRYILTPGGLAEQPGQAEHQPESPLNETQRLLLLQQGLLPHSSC
Method: as §1

Rsk1(h) = Rsk1(h) (Homo sapiens, UniProt Q15418); assay: Kinase panel, residual activity; assay type: biochemical; conditions: read-out: Percent residual activity
Method: as §1

Yes(h) = Yes(h) (Homo sapiens, UniProt P07947); assay: Kinase panel, residual activity; assay type: biochemical; conditions: read-out: Percent residual activity
Method: as §1

MEK1 = MEK1 (Homo sapiens, UniProt Q02750); conditions: cited from earlier work
ERK2 = ERK2 (UniProt P28482); assay type: biochemical; parameters: other: calculated for 0.1 μM for ~10 minutes; Ki; other: ERK2; kinact/Ki; "the target Cys 172 residue
Method: In either case, the time dependent inactivation can be dampened by the presence of a competing substrate, in this case ATP.
For covalent inhibitors, plots of log (activity) versus time provide apparent first-order rate constants (kobsd) of enzyme activity loss. If these assays are performed at varying concentrations of inhibitor, a series of first-order plots is obtained and kobsd obtained at each inhibitor concentration. […] Such molecules may be competitive inhibitors but should not show time-dependent inactivation.
Inhibition progress curve analysis was performed using continuous, colorimetric, or fluorimetric assays. All experiments were done at 1 mM ATP, with the exception of KDR (at 5 mM ATP).
MEK1 assays were performed using pre-incubation experiments with radioactive [^32P]ATP and filter binding of product. All other kinases were analyzed using progress curve analysis from a continuous spectrophotometric assay.

Chain of ALK(h) (Q9UM73 19-1620): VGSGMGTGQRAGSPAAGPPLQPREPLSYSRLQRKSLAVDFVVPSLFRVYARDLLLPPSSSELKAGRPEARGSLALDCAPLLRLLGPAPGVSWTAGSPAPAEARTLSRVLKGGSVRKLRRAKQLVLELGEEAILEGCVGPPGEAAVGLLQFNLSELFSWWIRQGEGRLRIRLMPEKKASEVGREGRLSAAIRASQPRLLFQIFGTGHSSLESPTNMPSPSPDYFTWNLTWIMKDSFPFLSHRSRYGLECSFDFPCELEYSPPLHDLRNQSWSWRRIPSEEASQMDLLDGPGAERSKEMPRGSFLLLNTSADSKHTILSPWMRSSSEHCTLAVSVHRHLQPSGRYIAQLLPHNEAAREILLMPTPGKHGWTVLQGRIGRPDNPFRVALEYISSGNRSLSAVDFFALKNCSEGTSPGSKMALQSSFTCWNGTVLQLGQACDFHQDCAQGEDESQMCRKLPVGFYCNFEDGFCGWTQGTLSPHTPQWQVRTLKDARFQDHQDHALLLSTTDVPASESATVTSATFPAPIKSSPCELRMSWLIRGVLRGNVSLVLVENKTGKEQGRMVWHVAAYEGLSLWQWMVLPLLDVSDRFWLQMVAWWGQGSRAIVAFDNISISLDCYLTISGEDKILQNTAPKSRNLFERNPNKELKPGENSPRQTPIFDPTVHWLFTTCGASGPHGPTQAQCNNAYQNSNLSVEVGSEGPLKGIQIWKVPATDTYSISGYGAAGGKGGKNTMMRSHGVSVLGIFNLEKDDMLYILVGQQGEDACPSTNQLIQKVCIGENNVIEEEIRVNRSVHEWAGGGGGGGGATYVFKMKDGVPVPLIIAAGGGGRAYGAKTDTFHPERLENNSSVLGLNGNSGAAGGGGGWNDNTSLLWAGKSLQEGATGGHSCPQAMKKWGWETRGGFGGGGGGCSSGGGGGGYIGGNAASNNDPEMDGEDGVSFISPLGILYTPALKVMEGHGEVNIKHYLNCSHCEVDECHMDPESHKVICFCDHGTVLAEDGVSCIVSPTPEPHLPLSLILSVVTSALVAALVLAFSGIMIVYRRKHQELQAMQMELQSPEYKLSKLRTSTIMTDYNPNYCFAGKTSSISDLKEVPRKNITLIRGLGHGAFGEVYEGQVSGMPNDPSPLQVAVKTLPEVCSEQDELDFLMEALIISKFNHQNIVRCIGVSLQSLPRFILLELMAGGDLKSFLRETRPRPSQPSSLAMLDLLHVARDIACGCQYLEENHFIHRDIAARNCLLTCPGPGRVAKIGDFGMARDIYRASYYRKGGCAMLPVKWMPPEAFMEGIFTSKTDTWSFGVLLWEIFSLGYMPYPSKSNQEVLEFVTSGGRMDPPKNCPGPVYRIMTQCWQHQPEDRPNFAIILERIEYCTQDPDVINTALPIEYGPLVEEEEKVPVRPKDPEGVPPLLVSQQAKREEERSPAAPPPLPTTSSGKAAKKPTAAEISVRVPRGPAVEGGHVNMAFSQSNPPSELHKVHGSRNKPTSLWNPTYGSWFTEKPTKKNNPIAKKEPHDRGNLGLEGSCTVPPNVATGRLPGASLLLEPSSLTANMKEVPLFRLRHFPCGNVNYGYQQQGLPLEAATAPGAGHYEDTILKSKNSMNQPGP

## COc1cc(O)c2c(c1)[C@H]1O[C@@H]1C[C@H](O)[C@H](O)C(=O)/C=C\C[C@H](C)OC2=O [Hypothemycin, hypothemycin]
ALK(h)
  remaining activity at 0.2 µM: 101%
BRK(h)
  remaining activity at 0.2 µM: 89%
Bmx(h)
  remaining activity at 0.2 µM: 99%
DDR2(h)
  remaining activity at 0.2 µM: 92%
FGFR4(h)
  remaining activity at 0.2 µM: 87%
Flt3(D835Y)(h); 0.2 μM
  remaining activity at 0.2 µM: 4%
Flt3(D835Y)(h); 2.0 μM
  remaining activity at 2 µM: 2%
IRAK4(h)
  remaining activity at 0.2 µM: 84%
JNK3(h)
  remaining activity at 0.2 µM: 76%
MSK2(h)
  remaining activity at 0.2 µM: 101%
NEK2(h)
  remaining activity at 0.2 µM: 99%
PKCα(h)
  remaining activity at 0.2 µM: 96%
PKCη(h)
  remaining activity at 0.2 µM: 97%
Rse(h)
  remaining activity at 0.2 µM: 90%
Rsk1(h)
  remaining activity at 0.2 µM: 100%
Yes(h)
  remaining activity at 0.2 µM: 99%
MEK1
  potency as MEK1 inhibitor relative to L-783,277 (fold less potent): 4 fold
ERK2; ERK2
  Ki: 2000 nM
  kinact/Ki: 1.9E+03
ERK2; calculated for 0.1 μM for ~10 minutes
  ERK activity inhibited: < 5%
